In patent US20050020576A1, “Kappa agonist compounds and pharmaceutical formulations thereof” (priority 1996, published 2005):
Where a name gives a salt, the structure may show the parent alone.

**Q.** For CNS(=O)(=O)c1ccc(CC(=O)N2CCN(C(=O)OC)CC2CN2CCCC2)cc1 (racemic) (as salt: hydrochloride) [Example 1f, Methyl-4-[-4-[N-methylamino)sulfamyl]phenyl)acetyl]-3-(R,S)-[(1-pyrrolidinyl)methyl]-1-piperazinecarboxylate hydrochloride], which melting point is on record?
**A.** 135 to 140 °C

**Q.** Which melting point does the source give for CCOC(=O)/C=C/C(=O)Nc1cc(Cl)c(Cl)cc1CC(=O)N(C)[C@H](CN1CCCC1)c1ccccc1 (as salt: hydrochloride) [Example 3y, (E) Ethyl 4-[2-(2-amino-4,5-dichlorophenyl)-N-methyl-N-[(1S)-1-phenyl)-2-[1-pyrrolidinyl]ethyl]acetamido]4-oxo-2-butenoate hydrochloride] here?
**A.** 165 to 167 °C (dec.)

**Q.** Which melting point does the source give for COC(=O)N1CCN(C(=O)Cc2ccccc2N(S(C)(=O)=O)S(C)(=O)=O)C(CN2CCCC2)C1 (racemic) (as salt: hydrochloride) [Example 1d, Methyl-4-[(2-[N,N-bis-methylsulfonamido]phenyl)acetyl]-3-(R,S)-[(1-pyrrolidinyl)methyl]-1-piperazinecarboxylate hydrochloride] here?
**A.** 145 to 150 °C

**Q.** For CN(C(=O)Cc1cc(Cl)c(Cl)cc1NC(=O)/C=C\C(=O)O)[C@H]1CCCC[C@@H]1N1CCCC1 (racemic), which melting point is on record?
**A.** 246 to 248 °C (dec.)

**Q.** With CC(C)C(=O)Nc1cccc([C@@H](CN2CCCC2)N(C)C(=O)Cc2ccccc2NC(=O)C(C)C)c1 (as salt: sulfonic acid salt) [Example 3qq, 2-(2-Iso-butyramidophenyl)-N-methyl-N-[(1S)-1-(3-isobutyramido-phenyl)-2-(1-pyrrolidinyl)ethyl]acetamide Methanesulfonic acid salt] as the molecule, how does the melting point read?
**A.** 143 to 145 °C

**Q.** For COc1cc(CC(=O)N(C)[C@H](CN2CCCC2)c2ccccc2)c(S(=O)(=O)N(C)Cc2ccccc2)cc1OC (as salt: HCl) [Example 148, 2-[2-(N-Benzyl-N-methylsulfamoyl)-4,5-dimethoxyphenyl]-N-methyl-N-[(1S)-1-phenyl-2-[(1-pyrrolidinyl)ethyl]]acetamide], which melting point is on record?
**A.** 188 to 189 °C

**Q.** With CNS(=O)(=O)c1ccccc1CC(=O)N(C)C(CN1CCCC1)c1ccccc1F (racemic) (as salt: salt) [Example 147] as the molecule, how does the melting point read?
**A.** 232 to 234 °C

**Q.** Which melting point does the source give for CN(C(=O)Cc1ccccc1NS(C)(=O)=O)[C@H](CN1CC[C@H](O)C1)c1ccccc1 (as salt: HCl) [Example 125, 2-(2-N-Methylsulfonamido-2-aminophenyl)-N-methyl-N-[(1S)-1-phenyl-2-[1-(3S)-(3-hydroxypyrrolidinyl)ethyl]]acetamide] here?
**A.** 168 to 171 °C

**Q.** Which melting point does the source give for CN(C(=O)Cc1ccccc1NCC(=O)O)C1CCCCC1N1CCCC1 (stereo not drawn) (as salt: HCl) here?
**A.** 212 to 214 °C (dec.)

**Q.** Which melting point does the source give for CN(C(=O)Cc1cc2c(cc1S(=O)(=O)N(C)Cc1ccccc1)OCO2)[C@H](CN1CCCC1)c1ccccc1 (as salt: salt) [Example 131, 2-[2-(N-Benzyl-N-methylsulfamoyl)-4,5-methylenedioxyphenyl]-N-methyl-N-[(1S)-1-phenyl-2-[(1-pyrrolidinyl)ethyl]]acetamide] here?
**A.** 236 to 238 °C

**Q.** Which melting point does the source give for CC(=O)N1CCN(C(=O)Cc2ccc(S(C)(=O)=O)cc2)C(CN2CCCC2)C1 (racemic) (as salt: hydrochloride) [(R,S-10a)] here?
**A.** 145 to 147 °C

**Q.** For CC(=O)N1CCN(C(=O)Cc2ccc(C(F)(F)F)cc2)C(CN2CCCC2)C1 (racemic) (as salt: hydrochloride) [(R,S-10b)], which melting point is on record?
**A.** 110 °C

**Q.** Which melting point does the source give for CCOP(=O)(OCC)N1CCN(C(=O)Cc2ccc(Cl)c(Cl)c2)[C@H](CN2CCCC2)C1 (as salt: hydrochloride) [(R-3g), (R)-4-(Diethoxyphosphonate)-1-[(3,4-dichlorophenyl)acetyl]-2-[(1-pyrolidinyl)methyl]-piperazine hydrochloride] here?
**A.** 168 to 170 °C

**Q.** With CCCCOC(=O)Nc1ccc(CC(=O)N(C)[C@H](CN2CCCC2)c2cccc([N+](=O)[O-])c2)cc1 (as salt: HCl) as the molecule, how does the melting point read?
**A.** 170 °C (dec.)

**Q.** With CN(C(=O)Cc1cc(Cl)c(Cl)cc1[N+](=O)[O-])[C@H](CN1CCCC1)c1cccc([N+](=O)[O-])c1 (as salt: HCl) as the molecule, how does the melting point read?
**A.** 165 °C (dec.)

**Q.** Which melting point does the source give for CN(C(=O)Cc1ccccc1NS(C)(=O)=O)[C@H](CN1CCCC1)c1cccc(NS(C)(=O)=O)c1 (as salt: hydrochloride) [Example 3pp, 2-(2-Methanesulfonamidophenyl)-N-methyl-N-[(1S)-1-(3-methanesulfon-amidophenyl)-2-(1-pyrrolidinyl)ethyl]acetamide Hydrochloride] here?
**A.** 160 °C (dec.)

**Q.** Which melting point does the source give for CS(=O)(=O)O[C@H]1CCN(CC2CN(S(C)(=O)=O)CCN2C(=O)Cc2ccc(Cl)c(Cl)c2)C1 (stereo partly drawn) (as salt: hydrochloride) [Example 1jj, 4-Methanesulfonyl-1-[(3,4-dichlorophenyl)acetyl]-2-(R,S)-[3-(S)-methanesulfonate-1-(pyrrolidinyl)methyl]piperazine hydrochloride] here?
**A.** 130 to 132 °C

**Q.** With CCOP(=O)(Nc1cccc([C@@H](CN2CCCC2)N(C)C(=O)Cc2ccc(Cl)c(Cl)c2)c1)OCC (as salt: hydrochloride) [Example 3g, 2-(3,4-Dichlorophenyl)-N-methyl-N-[(1S)-1-[3-(diethyl Phosphoryl)amino]phenyl)-2-(1-pyrrolidinyl)ethyl]acetamide hydrochloride] as the molecule, how does the melting point read?
**A.** 140 to 142 °C

**Q.** For COc1ccc(C(CN2CCCC2)N(C)C(=O)Cc2ccccc2NS(C)(=O)=O)cc1 (racemic) (as salt: salt) [Example 128], which melting point is on record?
**A.** 170 to 172 °C

**Q.** Which melting point does the source give for CN(C(=O)Cc1ccc(O)c(N(S(C)(=O)=O)S(C)(=O)=O)c1)[C@H](CN1CCCC1)c1ccccc1 (as salt: salt) [Example 130, 2-(3-N-Bis-methylsulfonamido-3-amino-4-hydroxyphenyl)-N-methyl-N-[(1S)-1-phenyl-2-(1-pyrrolidinyl)ethyl]acetamide] here?
**A.** 197 to 199 °C

**Q.** For CN(C(=O)Cc1ccc(C(F)(F)F)cc1NS(C)(=O)=O)[C@H](CN1CC[C@H](O)C1)c1ccccc1 (as salt: HCl) [Example 126, 2-(2-N-Methylsulfonamido-2-amino-4-trifluoromethylphenyl)-N-methyl-N-[(1S)-1-phenyl-2-[1-(3S)-(3-hydroxypyrrolidinyl)ethyl]]acetamide], which melting point is on record?
**A.** 178 to 181 °C

**Q.** With CS(=O)(=O)c1ccc(CC(=O)N2CCN(S(C)(=O)=O)CC2CN2CCCC2)cc1 (racemic) (as salt: hydrochloride) [(R,S-8b), (R,S)-4-Methanesulfonyl-1-[(4-methylsulfonylphenyl)acetyl]-2-[(1-pyrrolidinyl)-methyl]piperazine hydrochloride] as the molecule, how does the melting point read?
**A.** 185 to 188 °C

**Q.** For COC(=O)N1CCN(C(=O)Cc2c[nH]c3ccccc23)C(CN2CCCC2)C1 (racemic) (as salt: hydrochloride) [(R,S-9c), (R,S)-Methyl 4-[(3-indolyl)acetyl]-3-[(1-pyrrolidinyl)-methyl]-1-piperazine-carboxylate hydrochloride], which melting point is on record?
**A.** 143 °C

**Q.** With COc1cc2c(cc1S(=O)(=O)N(C)Cc1ccccc1)[C@@H](N(C)C(=O)Cc1ccc(Cl)c(Cl)c1)[C@H](N1CCCC1)CC2 (racemic) (as salt: HCl) as the molecule, how does the melting point read?
**A.** 150 °C (dec.)
